Assay results reported in patent US7030143B2, “Heterocyclic compounds” (Nippon Shinyaku Co., Ltd., priority 2000, dated 2006).

System: KK-A^y mice
Assay: Effects on carbohydrate and lipid metabolism in KK-A^y mouse
Format: in vivo
Conditions: oral, 4 days; for Percent change of each parameter compared to control group (%): AI: Atherogenic Index = (TC − HDL-C)/HDL-C; for Percent change of each parameter compared to control group (%): BG: plasma glucose level; for Percent change of each parameter compared to control group (%): Ins: plasma insulin level; for Percent change of each parameter compared to control group (%): TG: plasma triglyceride level; for Percent change of each parameter compared to control group (%): HDL-C: serum HDL-C level; for Percent change of each parameter compared to control group (%): (V)LDL-C: sum of VLDL-C and LDL-C level in serum
Method: The experiment was conducted using the compounds described in the Examples as test compounds and Troglitazone (5-[4-(6-hydroxy-2,5,7,8-tetramethylchroman-2-ylmethoxy)benzyl]-2,4-thiazolidinedione) as a control compound.
Each test compound was orally administered to KK-A^y mice (10 week old, male), NIDDM model animal, for 4 days at a given dosage. On the next day of the last administration, blood was collected from tail end blood vessels under non-fasting conditions to prepare heparinized plasma. Thereafter, blood was collected from an abdominal large vein under pentobarbital anesthesia to prepare serum. The glucose level (BG), triglyceride level (TG) and insulin level (Ins) in plasma were measured using a glucose CII-test Wako (Wako Pure Chemical Industries, Ltd), CLINTECH TG-S (IATORON LABORATORIES, INC.) or triglyceride E-test WAKO (Wako Pure Chemical Industries, Ltd), and a rat insulin measurement kit (Morinaga Biochemistry Research Institute) or REBIS-insulin-mouse-T (Mouse Insulin ELISA (TMB) KIT, Shibayagi Co., Ltd), respectively. Also, the sum of VLDL-C level and LDL-C level in serum (hereinafter, referred to as “(V)LDL-C”), total cholesterol level (TC) and HDL-C level were measured using a high performance liquid chromatography system for the measurement of lipoprotein cholesterol (TOSOH CORPORATION). (V)LDL-C level was measured because VLDL-C and LDL-C cannot be measured separately. Atherogenic Index (AI) was calculated according to the following formula: AI=[(TC level)−(HDL-C level)]/(HDL-C level).

## Cc1ccc(-c2nc(CCCCC3COC(C)(C(=O)O)OC3)c(C)o2)cc1C (stereo not drawn) [Example 73, 2-Methyl-c-5-{4-[5-methyl-2-(3,4-dimethylphenyl)-oxazol-4-yl]butyl}-1,3-dioxane-r-2-carboxylic acid]
Dose 3 mg/kg
  Percent change of each parameter compared to control group (%): AI: −85%
  Percent change of each parameter compared to control group (%): BG: −53%
  Percent change of each parameter compared to control group (%): Ins: −68%
  Percent change of each parameter compared to control group (%): TG: −92%
  Percent change of each parameter compared to control group (%): HDL-C: −8%
  Percent change of each parameter compared to control group (%): (V)LDL-C: −90%

## Cc1oc(-c2ccccc2)nc1CCCCC1COC(C)(C(=O)O)OC1 (stereo not drawn) [Example 9, 2-Methyl-c-5-[4-(5-methyl-2-phenyloxazol-4-yl)butyl]-1,3-dioxane-r-2-carboxylic acid]
Dose 1 mg/kg
  Percent change of each parameter compared to control group (%): AI: −49%
  Percent change of each parameter compared to control group (%): BG: −12%
  Percent change of each parameter compared to control group (%): Ins: −36%
  Percent change of each parameter compared to control group (%): TG: −46%
  Percent change of each parameter compared to control group (%): HDL-C: 36%
  Percent change of each parameter compared to control group (%): (V)LDL-C: −29%

## Cc1oc(-c2cccs2)nc1CCCCC1COC(C)(C(=O)O)OC1 (stereo not drawn) [Example 75, 2-Methyl-c-5-{4-[5-methyl-2-(2-thienyl)oxazol-4-yl]butyl}-1,3-dioxane-r-2-carboxylic acid]
Dose 3 mg/kg
  Percent change of each parameter compared to control group (%): AI: −61%
  Percent change of each parameter compared to control group (%): BG: −23%
  Percent change of each parameter compared to control group (%): Ins: −29%
  Percent change of each parameter compared to control group (%): TG: −47%
  Percent change of each parameter compared to control group (%): HDL-C: 37%
  Percent change of each parameter compared to control group (%): (V)LDL-C: −50%

## Cc1cccc(-c2nc(CCCCC3COC(C)(C(=O)O)OC3)c(C)o2)c1 (stereo not drawn) [Example 71, 2-Methyl-c-5-{4-[5-methyl-2-(m-tolyl)oxazol-4-yl]butyl}-1,3-dioxane-r-2-carboxylic acid]
Dose 3 mg/kg
  Percent change of each parameter compared to control group (%): AI: −90%
  Percent change of each parameter compared to control group (%): BG: −51%
  Percent change of each parameter compared to control group (%): Ins: −61%
  Percent change of each parameter compared to control group (%): TG: −89%
  Percent change of each parameter compared to control group (%): HDL-C: 1%
  Percent change of each parameter compared to control group (%): (V)LDL-C: −90%

## Cc1ccc(-c2nc(CCCCCCOC(C)(C)C(=O)O)c(C)o2)cc1 [Example 37, 2-Methyl-2-{6-[5-methyl-2-(p-tolyl)oxazol-4-yl]hexyloxy}propionic acid]
Dose 3 mg/kg
  Percent change of each parameter compared to control group (%): AI: −70%
  Percent change of each parameter compared to control group (%): BG: −5%
  Percent change of each parameter compared to control group (%): Ins: −27%
  Percent change of each parameter compared to control group (%): TG: −51%
  Percent change of each parameter compared to control group (%): HDL-C: 33%
  Percent change of each parameter compared to control group (%): (V)LDL-C: −54%

## Cc1oc(-c2ccccc2)nc1C/C=C/CCCOC(C)(C)C(=O)O [Example 54, Potassium 2-methyl-2-[6-(5-methyl-2-phenyloxazol-4-yl)-(E)-4-hexenyloxy]propionate]
Dose 1 mg/kg
  Percent change of each parameter compared to control group (%): AI: −83%
  Percent change of each parameter compared to control group (%): BG: −24%
  Percent change of each parameter compared to control group (%): Ins: −14%
  Percent change of each parameter compared to control group (%): TG: −72%
  Percent change of each parameter compared to control group (%): HDL-C: 24%
  Percent change of each parameter compared to control group (%): (V)LDL-C: −77%

## Cc1ccc(-c2nc(Cc3cccc(CC4COC(C)(C(=O)O)OC4)c3)c(C)o2)cc1 (stereo not drawn) [Example 81, 2-Methyl-t-5-[3-{[5-methyl-2-(p-tolyl)oxazol-4-yl]methyl}benzyl]-1,3-dioxane-r-2-carboxylic acid]
Dose 1 mg/kg
  Percent change of each parameter compared to control group (%): AI: −83%
  Percent change of each parameter compared to control group (%): BG: −8%
  Percent change of each parameter compared to control group (%): Ins: −21%
  Percent change of each parameter compared to control group (%): TG: −62%
  Percent change of each parameter compared to control group (%): HDL-C: 32%
  Percent change of each parameter compared to control group (%): (V)LDL-C: −76%

## Cc1c(C)c2c(c(C)c1O)CCC(C)(COc1ccc(CC3SC(=O)NC3=O)cc1)O2 (stereo not drawn) [Troglitazone, 5-[4-(6-hydroxy-2,5,7,8-tetramethylchroman-2-ylmethoxy)benzyl]-2,4-thiazolidinedione, reference compound]
Dose 300 mg/kg
  Percent change of each parameter compared to control group (%): AI: −7%
  Percent change of each parameter compared to control group (%): BG: −9%
  Percent change of each parameter compared to control group (%): Ins: −22%
  Percent change of each parameter compared to control group (%): TG: −11%
  Percent change of each parameter compared to control group (%): HDL-C: −8%
  Percent change of each parameter compared to control group (%): (V)LDL-C: −26%

## Cc1oc(-c2ccccc2)nc1/C=C/CCC1COC(C)(C(=O)O)OC1 (stereo not drawn) [Example 53, 2-Methyl-c-5-[4-(5-methyl-2-phenyloxazol-4-yl)-(E)-3-butenyl]-1,3-dioxane-r-2-carboxylic acid]
Dose 3 mg/kg
  Percent change of each parameter compared to control group (%): AI: −62%
  Percent change of each parameter compared to control group (%): BG: −46%
  Percent change of each parameter compared to control group (%): Ins: −37%
  Percent change of each parameter compared to control group (%): TG: −51%
  Percent change of each parameter compared to control group (%): HDL-C: 3%
  Percent change of each parameter compared to control group (%): (V)LDL-C: −49%

## CCC1(C(=O)O)OCC(CCCCc2nc(-c3ccccc3)oc2C)CO1 (stereo not drawn) [Example 21, 2-Ethyl-c-5-[4-(5-methyl-2-phenyloxazol-4-yl)butyl]-1,3-dioxane-r-2-carboxylic acid]
Dose 3 mg/kg
  Percent change of each parameter compared to control group (%): AI: −38%
  Percent change of each parameter compared to control group (%): BG: −18%
  Percent change of each parameter compared to control group (%): Ins: −26%
  Percent change of each parameter compared to control group (%): TG: −52%
  Percent change of each parameter compared to control group (%): HDL-C: 5%
  Percent change of each parameter compared to control group (%): (V)LDL-C: −26%

## Cc1oc(-c2ccc(Cl)cc2)nc1CCCCCCOC(C)(C)C(=O)O [Example 39, 2-{6-[2-(4-Chlorophenyl)-5-methyloxazol-4-yl]hexyloxy}-2-methylpropionic acid]
Dose 1 mg/kg
  Percent change of each parameter compared to control group (%): AI: −73%
  Percent change of each parameter compared to control group (%): BG: −14%
  Percent change of each parameter compared to control group (%): Ins: −20%
  Percent change of each parameter compared to control group (%): TG: −56%
  Percent change of each parameter compared to control group (%): HDL-C: 36%
  Percent change of each parameter compared to control group (%): (V)LDL-C: −53%

## Cc1oc(-c2ccc(C(C)(C)C)cc2)nc1CCCCC1COC(C)(C(=O)O)OC1 (stereo not drawn) [Example 18, c-5-{4-[2-(4-tert-Butylphenyl)-5-methyloxazol-4-yl]butyl}-2-methyl-1,3-dioxane-r-2-carboxylic acid]
Dose 3 mg/kg
  Percent change of each parameter compared to control group (%): AI: −65%
  Percent change of each parameter compared to control group (%): BG: −12%
  Percent change of each parameter compared to control group (%): Ins: −1%
  Percent change of each parameter compared to control group (%): TG: −43%
  Percent change of each parameter compared to control group (%): HDL-C: 76%
  Percent change of each parameter compared to control group (%): (V)LDL-C: −20%

## Cc1ccc(-c2nc(CCCCC3COC(C)(C(=O)O)OC3)c(C)o2)cc1F (stereo not drawn) [Example 64, 2-Methyl-c-5-{4-[5-methyl-2-(3-fluoro-4-methylphenyl)-oxazol-4-yl]butyl}-1,3-dioxane-r-2-carboxylic acid]
Dose 1 mg/kg
  Percent change of each parameter compared to control group (%): AI: −72%
  Percent change of each parameter compared to control group (%): BG: −12%
  Percent change of each parameter compared to control group (%): Ins: −20%
  Percent change of each parameter compared to control group (%): TG: −53%
  Percent change of each parameter compared to control group (%): HDL-C: 21%
  Percent change of each parameter compared to control group (%): (V)LDL-C: −63%
